What all share (assay type): cell-based
One assay addresses T1, human TLR7 (Homo sapiens, UniProt Q9NYK1).
T1 construct: host or cells: HEK-Blue cells (HEK293-derived reporter line)
T1 sequence (Q9NYK1 27-1049): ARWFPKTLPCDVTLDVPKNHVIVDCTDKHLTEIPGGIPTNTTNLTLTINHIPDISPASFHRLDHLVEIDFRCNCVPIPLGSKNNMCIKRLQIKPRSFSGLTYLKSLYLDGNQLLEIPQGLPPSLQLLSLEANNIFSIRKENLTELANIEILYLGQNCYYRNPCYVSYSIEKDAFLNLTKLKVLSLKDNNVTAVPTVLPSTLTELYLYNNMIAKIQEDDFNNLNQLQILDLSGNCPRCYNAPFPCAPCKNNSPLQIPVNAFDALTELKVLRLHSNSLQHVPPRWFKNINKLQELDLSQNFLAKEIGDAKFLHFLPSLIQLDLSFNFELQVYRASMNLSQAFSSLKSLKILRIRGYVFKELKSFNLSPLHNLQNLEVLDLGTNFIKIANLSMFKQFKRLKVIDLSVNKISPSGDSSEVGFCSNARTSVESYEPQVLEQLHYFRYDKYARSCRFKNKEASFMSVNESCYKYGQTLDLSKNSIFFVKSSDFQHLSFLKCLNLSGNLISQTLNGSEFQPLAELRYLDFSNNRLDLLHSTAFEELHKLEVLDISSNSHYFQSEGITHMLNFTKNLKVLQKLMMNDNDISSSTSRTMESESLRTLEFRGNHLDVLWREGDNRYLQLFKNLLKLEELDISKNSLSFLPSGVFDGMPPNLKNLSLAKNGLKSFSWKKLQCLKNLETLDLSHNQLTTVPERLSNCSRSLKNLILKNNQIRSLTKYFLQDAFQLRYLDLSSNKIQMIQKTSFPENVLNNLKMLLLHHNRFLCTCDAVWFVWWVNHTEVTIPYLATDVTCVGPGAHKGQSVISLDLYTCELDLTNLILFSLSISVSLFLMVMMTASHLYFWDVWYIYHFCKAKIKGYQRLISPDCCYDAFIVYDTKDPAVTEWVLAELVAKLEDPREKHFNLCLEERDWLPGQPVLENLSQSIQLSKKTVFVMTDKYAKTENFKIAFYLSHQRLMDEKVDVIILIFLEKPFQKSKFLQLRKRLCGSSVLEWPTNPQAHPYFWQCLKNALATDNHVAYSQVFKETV
Put plainly: TLR7 inhibition reporter assay (HEK-Blue cells, SEAP reporter, gardiquimod stimulation). As to conditions: HEK-Blue cells overexpressing human TLR7, SEAP reporter, gardiquimod 7.5 μM. The essentials:
(§1)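 Percent inhibition of agonist-induced SEAP secretion in HEK-Blue cells after 22 h at 37 °C. Stimuli: 7.5 μM gardiquimod, 15.9 μM R848, 5 nM ODN2006 for TLR7, TLR8 and TLR9, added after 30 min compound exposure over a 0.05 nM–50 μM range.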

A further assay deals with T2, human TLR9 (Homo sapiens, UniProt Q9NR96).
T2 construct: host or cells: HEK-Blue cells (HEK293-derived reporter line)
T2 sequence (Q9NR96 26-1032): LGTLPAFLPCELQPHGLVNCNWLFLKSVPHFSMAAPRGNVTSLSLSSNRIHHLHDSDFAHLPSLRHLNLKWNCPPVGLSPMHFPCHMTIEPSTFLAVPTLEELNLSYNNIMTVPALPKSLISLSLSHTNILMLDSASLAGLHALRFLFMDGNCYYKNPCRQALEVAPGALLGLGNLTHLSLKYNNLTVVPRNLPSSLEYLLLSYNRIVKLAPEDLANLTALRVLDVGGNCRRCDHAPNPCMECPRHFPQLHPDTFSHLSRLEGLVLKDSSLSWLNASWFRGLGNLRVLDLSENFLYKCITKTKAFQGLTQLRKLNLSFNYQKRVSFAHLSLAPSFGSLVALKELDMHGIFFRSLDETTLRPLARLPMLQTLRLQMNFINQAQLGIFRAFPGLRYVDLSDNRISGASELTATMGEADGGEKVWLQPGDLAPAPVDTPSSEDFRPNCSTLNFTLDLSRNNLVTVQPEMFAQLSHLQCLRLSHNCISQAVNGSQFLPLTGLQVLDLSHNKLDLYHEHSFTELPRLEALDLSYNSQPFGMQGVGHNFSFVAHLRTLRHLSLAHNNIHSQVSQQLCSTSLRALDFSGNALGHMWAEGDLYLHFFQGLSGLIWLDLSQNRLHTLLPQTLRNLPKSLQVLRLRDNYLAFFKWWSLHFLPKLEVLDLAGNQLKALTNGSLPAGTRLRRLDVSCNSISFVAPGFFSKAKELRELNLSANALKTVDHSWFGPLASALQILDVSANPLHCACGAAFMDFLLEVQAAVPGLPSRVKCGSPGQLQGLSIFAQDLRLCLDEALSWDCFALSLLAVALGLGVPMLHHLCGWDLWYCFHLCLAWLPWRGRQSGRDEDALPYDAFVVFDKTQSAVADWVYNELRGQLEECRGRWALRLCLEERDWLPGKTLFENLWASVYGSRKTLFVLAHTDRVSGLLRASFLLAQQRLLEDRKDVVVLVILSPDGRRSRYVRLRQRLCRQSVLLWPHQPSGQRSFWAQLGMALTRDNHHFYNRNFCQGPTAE
The assay is described as follows: TLR9 inhibition reporter assay (HEK-Blue cells, SEAP reporter, ODN2006 stimulation). As to conditions: HEK-Blue cells overexpressing human TLR9, SEAP reporter, ODN2006 5 nM. The method, boiled down: as §1
In general terms: In a reporter assay the amount or activity of a reporter protein is the signal.

The next assay deals with T3, human TLR8 (Homo sapiens, UniProt Q9NR97).
T3 construct: host or cells: HEK-Blue cells (HEK293-derived reporter line)
T3 sequence (Q9NR97 27-1041): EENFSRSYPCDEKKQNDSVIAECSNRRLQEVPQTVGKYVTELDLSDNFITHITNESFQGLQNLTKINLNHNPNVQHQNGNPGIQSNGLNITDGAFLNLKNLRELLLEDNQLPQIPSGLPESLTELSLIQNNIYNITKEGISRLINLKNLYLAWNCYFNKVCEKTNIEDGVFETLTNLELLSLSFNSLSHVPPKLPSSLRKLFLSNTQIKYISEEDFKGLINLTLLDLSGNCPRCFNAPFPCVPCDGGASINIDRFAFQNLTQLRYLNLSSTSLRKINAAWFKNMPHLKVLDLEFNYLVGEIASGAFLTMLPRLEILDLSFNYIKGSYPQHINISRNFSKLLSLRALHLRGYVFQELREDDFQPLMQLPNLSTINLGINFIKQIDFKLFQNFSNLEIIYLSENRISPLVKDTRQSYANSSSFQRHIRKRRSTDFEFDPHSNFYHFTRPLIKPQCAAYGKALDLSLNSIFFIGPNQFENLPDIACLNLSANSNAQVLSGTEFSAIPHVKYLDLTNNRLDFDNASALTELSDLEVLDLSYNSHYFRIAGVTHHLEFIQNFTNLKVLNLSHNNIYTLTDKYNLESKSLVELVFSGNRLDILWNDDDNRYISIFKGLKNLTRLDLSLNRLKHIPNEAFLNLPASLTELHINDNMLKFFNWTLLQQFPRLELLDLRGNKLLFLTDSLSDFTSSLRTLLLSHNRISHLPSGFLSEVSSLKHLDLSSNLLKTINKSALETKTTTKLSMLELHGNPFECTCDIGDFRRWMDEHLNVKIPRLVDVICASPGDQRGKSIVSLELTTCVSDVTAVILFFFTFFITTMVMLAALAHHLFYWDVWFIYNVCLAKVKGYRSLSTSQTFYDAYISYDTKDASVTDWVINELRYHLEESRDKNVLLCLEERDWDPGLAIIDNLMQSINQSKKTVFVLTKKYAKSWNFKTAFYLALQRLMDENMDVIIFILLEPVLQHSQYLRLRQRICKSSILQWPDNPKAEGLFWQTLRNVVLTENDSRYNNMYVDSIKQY
The assay is described as follows: TLR8 inhibition reporter assay (HEK-Blue cells, SEAP reporter, R848 stimulation). As to conditions: HEK-Blue cells overexpressing human TLR8, SEAP reporter, R848 15.9 μM. The essentials:
as §1

IC50 data for 12 molecules are collected here from patent US11739098B2 (BRISTOL-MYERS SQUIBB COMPANY, priority 2017, dated 2023).

Some results are limits rather than exact numbers.

On to `CC(C)c1c(-c2ccnc3[nH]ncc23)[nH]c2ccc(C3CCN(Cc4cn(C)cn4)CC3)cc12` [Example 906, 4-(3-isopropyl-5-(1-((1-methyl-1H-imidazol-4-yl)methyl)piperidin-4-yl)-1H-indol-2-yl)-1H-pyrazolo[3,4-b]pyridine], for which the IC50 (as a rule, the concentration at which inhibition is half-maximal) against human TLR7 is < 100 nM; against human TLR9, 100 to 1000 nM; against human TLR8, < 100 nM.

Turning to `CC(C)c1c(-c2ccnc3[nH]ncc23)[nH]c2ccc(C3CCN(Cc4cccnc4)CC3)cc12` [Example 907, 4-(3-isopropyl-5-(1-(pyridin-3-ylmethyl)piperidin-4-yl)-1H-indol-2-yl)-1H-pyrazolo[3,4-b]pyridine], the IC50 at human TLR7 is < 100 nM; against human TLR9, 1000 to 50000 nM; against human TLR8, < 100 nM.

On to `CCc1c(-c2ccnc3[nH]ncc23)[nH]c2ccc(C3CCN(Cc4c[nH]c(-c5ccccc5)n4)CC3)cc12` [Example 908, 4-(3-ethyl-5-(1-((2-phenyl-1H-imidazol-4-yl)methyl)piperidin-4-yl)-1H-indol-2-yl)-1H-pyrazolo[3,4-b]pyridine], for which the IC50 against human TLR7 was 100 to 1000 nM; on human TLR9, 1000 to 50000 nM; against human TLR8, 100 to 1000 nM.

For `COc1ncc(CN2CCC(c3ccc4[nH]c(-c5ccnc6[nH]ncc56)c(C(C)C)c4c3)CC2)cn1` [Example 909, 4-(3-isopropyl-5-(1-((2-methoxypyrimidin-5-yl)methyl)piperidin-4-yl)-1H-indol-2-yl)-1H-pyrazolo[3,4-b]pyridine], the IC50 against human TLR7 is < 100 nM; against human TLR9, 1000 to 50000 nM; on human TLR8, < 100 nM.

Turning to `CC(C)c1c(-c2ccnc3[nH]ncc23)[nH]c2ccc(C3CCN(Cc4nccc5ccccc45)CC3)cc12` [Example 910, 1-((4-(3-isopropyl-2-(1H-pyrazolo[3,4-b]pyridin-4-yl)-1H-indol-5-yl)piperidin-1-yl)methyl)isoquinoline], the IC50 against human TLR7 lay in the range of 100 to 1000 nM; against human TLR9, 1000 to 50000 nM; against human TLR8, 100 to 1000 nM.

Take `CCc1c(-c2ccnc3[nH]ncc23)[nH]c2ccc(C3CCN(Cc4cncn4C)CC3)cc12` [Example 911, 4-(3-ethyl-5-(1-((1-methyl-1H-imidazol-5-yl)methyl)piperidin-4-yl)-1H-indol-2-yl)-1H-pyrazolo[3,4-b]pyridine]: the IC50 is 100 to 1000 nM against human TLR7, 1000 to 50000 nM against human TLR9 and < 100 nM at human TLR8.

Turning to `CC(C)c1c(-c2ccnc3[nH]ncc23)[nH]c2ccc(C3CCN(Cc4ccc(N5CCOCC5)cc4)CC3)cc12` [Example 912, 4-(4-((4-(3-isopropyl-2-(1H-pyrazolo[3,4-b]pyridin-4-yl)-1H-indol-5-yl)piperidin-1-yl)methyl)phenyl)morpholine], the IC50 against human TLR7 is < 100 nM; against human TLR9 it was 100 to 1000 nM; on human TLR8, < 100 nM.

For the molecule `CC(C)c1c(-c2ccnc3[nH]ncc23)[nH]c2ccc(C3CCN(Cc4cc(F)cnc4Cl)CC3)cc12` [Example 913, 4-(5-(1-((2-chloro-5-fluoropyridin-3-yl)methyl)piperidin-4-yl)-3-isopropyl-1H-indol-2-yl)-1H-pyrazolo[3,4-b]pyridine], the IC50 against human TLR7 is 100 to 1000 nM; at human TLR9, > 50000 nM; against human TLR8, 100 to 1000 nM.

Take `CC(C)c1c(-c2ccnc3[nH]ncc23)[nH]c2ccc(C3CCN(Cc4ncc[nH]4)CC3)cc12` [Example 914, 4-(5-(1-((1H-imidazol-2-yl)methyl)piperidin-4-yl)-3-isopropyl-1H-indol-2-yl)-1H-pyrazolo[3,4-b]pyridine]: the IC50 was < 100 nM against human TLR7, 1000 to 50000 nM against human TLR9 and < 100 nM on human TLR8.

In the case of `CCc1ncc(CN2CCC(c3ccc4[nH]c(-c5ccnc6[nH]ncc56)c(CC)c4c3)CC2)[nH]1` [Example 915, 4-(3-ethyl-5-(1-((2-ethyl-1H-imidazol-5-yl)methyl)piperidin-4-yl)-1H-indol-2-yl)-1H-pyrazolo[3,4-b]pyridine], the IC50 on human TLR7 was 100 to 1000 nM; at human TLR9, 100 to 1000 nM; against human TLR8, < 100 nM.

For the molecule `CCc1c(-c2ccnc3[nH]ncc23)[nH]c2ccc(C3CCN(Cc4[nH]cnc4C)CC3)cc12` [Example 916, 4-(3-ethyl-5-(1-((4-methyl-1H-imidazol-5-yl)methyl)piperidin-4-yl)-1H-indol-2-yl)-1H-pyrazolo[3,4-b]pyridine], the IC50 at human TLR7, at human TLR9 and on human TLR8 was 100 to 1000 nM throughout.

As for `CCc1c(-c2ccnc3[nH]ncc23)[nH]c2ccc(C3CCN(Cc4coc(C)n4)CC3)cc12` [Example 917, 4-((4-(3-ethyl-2-(1H-pyrazolo[3,4-b]pyridin-4-yl)-1H-indol-5-yl)piperidin-1-yl)methyl)-2-methyloxazole], the IC50 against human TLR7 was 100 to 1000 nM; at human TLR9, 1000 to 50000 nM; on human TLR8, < 100 nM.
